Results published in patent publication US9139578B2 (BRISTOL-MYERS SQUIBB COMPANY, priority 2012, dated 2015).

biological target: endothelial lipase (EL) (Homo sapiens (Human), UniProt Q9Y5X9); test: Endothelial lipase (EL) enzymatic assay with fluorescent substrate A10070 in DMPG vesicles; assay type: biochemical; settings: conditioned media from HT-1080 cells overexpressing endogenous EL; 20 min preincubation at 37° C.
Experimental: Endothelial lipase activity was measured using a fluorescent substrate, A10070, (Invitrogen, CA) doped into an artificial vesicle containing DMPG (Avanti Polar Lipids) as the excipient. Vesicles were prepared by combining 285 μL, of 1 mM DMPG in a 1:1 mixture of MeOH and CHCl3 with 15 μL, of 1 mM A10070 in a 1:1 mixture of MeOH and CHCl3. The mixture was dried under nitrogen and resuspended in 150 μL, of 50 mM HEPES pH 8.0 buffer containing 100 mM NaCl and 0.2 mM EDTA. The sample was allowed to sit at rt for 15 min and then was sonicated 3×4 mins on ice with a Branson Sonicator using duty cycle 1. This preparation provides vesicles with a mole fraction of 0.05 for the FRET substrate.
The enzymatic assay was measured using white, opaque 96-well half area plates. Each well contained 60 μL, of assay buffer (50 mM HEPES pH 8.0, 50 mM NaCl and 1 mM CaCl2) and 2 ul of a DMSO solution containing compound of interest. Conditioned media obtained from HT-1080 cells, which were transformed by RAGE technology (Athersys) to overexpress endogenous EL, was added and the reaction was allowed to incubate for 20 min at 37° C. with gentle agitation. The reaction was started by the addition of 20 μL, of a 1:4 dilution of vesicles. The final total reaction volume was 100 μL. The reaction rates were measured on a Gemini plate reader with an excitation wavelength of 488 nm and an emission of 530 nm. Readings were taken every 20 seconds for 10 min with agitation between each reading. The slope of the linear portion of the readout was used to calculate the rate of the reaction.

endothelial lipase (EL), sequence (Q9Y5X9 21-500): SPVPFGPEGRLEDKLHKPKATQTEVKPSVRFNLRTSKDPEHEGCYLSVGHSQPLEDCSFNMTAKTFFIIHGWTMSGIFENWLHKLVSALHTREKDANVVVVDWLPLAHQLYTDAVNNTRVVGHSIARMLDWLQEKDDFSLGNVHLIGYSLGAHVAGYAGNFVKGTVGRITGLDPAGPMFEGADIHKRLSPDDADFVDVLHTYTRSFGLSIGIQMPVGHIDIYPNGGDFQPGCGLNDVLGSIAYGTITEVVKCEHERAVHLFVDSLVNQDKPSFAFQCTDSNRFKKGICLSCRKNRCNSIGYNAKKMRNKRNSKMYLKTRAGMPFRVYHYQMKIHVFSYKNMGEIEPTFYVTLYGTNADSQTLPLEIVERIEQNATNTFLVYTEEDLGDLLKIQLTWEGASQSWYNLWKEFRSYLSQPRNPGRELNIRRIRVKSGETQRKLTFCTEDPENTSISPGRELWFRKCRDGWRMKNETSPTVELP

O=C1NC(=O)C(Cc2nnc(C(NC(=O)c3ccc(C(F)(F)F)cc3)c3nc4ccc(-c5ccc(F)nc5)cc4s3)o2)S1 (centres unmarked) [Example 1, N-((5-((2,4-dioxothiazolidin-5-yl)methyl)-1,3,4-oxadiazol-2-yl)(6-(6-fluoropyridin-3-yl)benzo[d]thiazol-2-yl)methyl)-4-(trifluoromethyl)benzamide] and NS(=O)(=O)NCc1nnc(C(NC(=O)c2ccc(C(F)(F)F)cc2)c2nc3ccc(-c4ccc(F)nc4)cc3s2)o1 (centres unmarked) [Example 2, N-((6-(6-fluoropyridin-3-yl)benzo[d]-thiazol-2-yl)(5-((sulfamoyl-amino)-methyl)-1,3,4-oxadiazol-2-yl)methyl)-4-(trifluoro-methyl)-benzamide] cannot be ordered by IC50: < 10 nM for the first, < 10 nM for the second.

NS(=O)(=O)NCc1nnc(C(NC(=O)c2cccnc2)c2nc3ccc(-c4ccc(F)nc4)cc3s2)o1 (centres unmarked) [Example 3, N-((6-(6-fluoropyridin-3-yl)benzo[d]-thiazol-2-yl)(5-((sulfamoyl-amino)-methyl)-1,3,4-oxadiazol-2-yl)methyl)-nicotinamide] and CC(=O)NC(c1nnc(CNS(N)(=O)=O)o1)c1nc2ccc(-c3ccc(F)nc3)cc2s1 (centres unmarked) [Example 10, N-((6-(6-fluoropyridin-3-yl)benzo[d]-thiazol-2-yl)(5-((sulfamoyl-amino)-methyl)-1,3,4-oxadiazol-2-yl)methyl)-acetamide] cannot be ordered by IC50: < 10 nM for the first, < 10 nM for the second.

NS(=O)(=O)NCc1nnc(C(NC(=O)NCc2ccccc2)c2nc3ccc(-c4ccc(F)nc4)cc3s2)o1 (centres unmarked) [Example 4, 1-benzyl-3-((6-(6-fluoro-3-pyridinyl)-1,3-benzothiazol-2-yl)(5-((sulfamoyl-amino)-methyl)-1,3,4-oxadiazol-2-yl)methyl)urea] and NS(=O)(=O)NCc1nnc(C(NC(=O)Nc2ccc(F)cc2)c2nc3ccc(-c4ccc(F)nc4)cc3s2)o1 (centres unmarked) [Example 7, 1-(4-fluoro-phenyl)-3-((6-(6-fluoro-3-pyridinyl)-1,3-benzothiazol-2-yl)(5-((sulfamoyl-amino)-methyl)-1,3,4-oxadiazol-2-yl)methyl)urea] cannot be ordered by IC50: < 10 nM for the first, < 10 nM for the second.

CCC(=O)NC(c1nnc(CNS(N)(=O)=O)o1)c1nc2ccc(-c3ccc(F)nc3)cc2s1 (centres unmarked) [Example 5, N-((6-(6-fluoropyridin-3-yl)benzo[d]-thiazol-2-yl)(5-M-((sulfamoyl-amino)-methyl)-1,3,4-oxadiazol-2-yl)methyl)-propionamide] and CCOC(=O)CNC(=O)NC(c1nnc(CNS(N)(=O)=O)o1)c1nc2ccc(-c3ccc(F)nc3)cc2s1 (centres unmarked) [Example 6, ethyl 2-(3-((6-(6-fluoropyridin-3-yl)benzo[d]-thiazol-2-yl)(5-((sulfamoyl-amino)-methyl)-1,3,4-oxadiazol-2-yl)methyl)-ureido)acetate] cannot be ordered by IC50: < 10 nM for the first, < 10 nM for the second.

Cc1noc(C)c1NC(=O)NC(c1nnc(CNS(N)(=O)=O)o1)c1nc2ccc(-c3ccc(F)nc3)cc2s1 (centres unmarked) [Example 8, 1-(3,5-dimethyl-4-isoxazolyl)-3-((6-(6-fluoro-3-pyridinyl)-1,3-benzothiazol-2-yl)(5-((sulfamoyl-amino)-methyl)1,3,4-oxadiazol-2-yl)methyl)urea] and CC(C)NC(=O)NC(c1nnc(CNS(N)(=O)=O)o1)c1nc2ccc(-c3ccccc3)cc2s1 (centres unmarked) [Example 15, 1-isopropyl-3-((6-phenyl-1,3-benzothiazol-2-yl)(5-((sulfamoylamino)-methyl)-1,3,4-oxadiazol-2-yl)methyl)urea] cannot be ordered by IC50: < 10 nM for the first, < 10 nM for the second.

CC(=O)NC(c1nnc(CC2SC(=O)NC2=O)o1)c1nc2ccc(-c3ccc(F)nc3)cc2s1 (centres unmarked) [Example 9, N-((5-((2,4-dioxo-thiazolidin-5-yl)methyl)-1,3,4-oxadiazol-2-yl)-(6-(6-fluoropyridin-3-yl)benzo[d]-thiazol-2-yl)-methyl)-acetamide] and CC(=O)NC(c1nnc(CC2SC(=O)NC2=O)o1)c1nc2ccc(-c3ccnn3C)cc2s1 (centres unmarked) [Example 11, N-((5-((2,4-dioxo-thiazolidin-5-yl)methyl)-1,3,4-oxadiazol-2-yl)(6-(1-methyl-1H-pyrazol-5-yl)benzo[d]-thiazol-2-yl)methyl)-acetamide] cannot be ordered by IC50: < 10 nM for the first, < 10 nM for the second.

CC(=O)NC(c1nnc(CNS(N)(=O)=O)o1)c1nc2ccc(-c3ccccc3)cc2s1 (centres unmarked) [Example 12, N-((6-phenylbenzo[d]thiazol-2-yl)(5-((sulfamoylamino)methyl)-1,3,4-oxadiazol-2-yl)methyl)acetamide] and CC(C)C(=O)NC(c1nnc(CNS(N)(=O)=O)o1)c1nc2ccc(-c3ccccc3)cc2s1 (centres unmarked) [Example 13, N-((6-phenylbenzo[d]-thiazol-2-yl)(5-((sulfamoylamino)-methyl)-1,3,4-oxadiazol-2-yl)methyl)-isobutyramide] cannot be ordered by IC50: < 10 nM for the first, < 10 nM for the second.

NS(=O)(=O)NCc1nnc(C(NC(=O)c2ccc(C(F)(F)F)cc2)c2nc3ccc(-c4ccccc4)cc3s2)o1 (centres unmarked) [Example 16, N-((6-phenylbenzo[d]-thiazol-2-yl)(5-((sulfamoylamino)-methyl)-1,3,4-oxadiazol-2-yl)methyl)-4-(trifluoromethyl)-benzamide] and O=C1NC(=O)C(Cc2nnc(C(NC(=O)c3ccc(C(F)(F)F)cc3)c3nc4c(F)cc(-c5ccccc5)cc4s3)o2)S1 (centres unmarked) [Example 22] cannot be ordered by IC50: < 10 nM for the first, < 10 nM for the second.

Going from CC(=O)NC(c1nnc(CNC(=O)OC(C)(C)C)o1)c1nc2ccc(-c3ccccc3)cc2s1 (centres unmarked) [Example 17, tert-butyl ((5-(acetamido(6-phenylbenzo[d]-thiazol-2-yl)methyl)-1,3,4-oxadiazol-2-yl)methyl)-carbamate] to CC(=O)NC(c1nnc(C2CN(CC(C)(C)C)C2)o1)c1nc2ccc(-c3ccccc3)cc2s1 (centres unmarked) [Example 26, N-((5-(1-neopentylazetidin-3-yl)-1,3,4-oxadiazol-2-yl)(6-phenylbenzo[d]thiazol-2-yl)methyl)acetamide], the IC50 rises from < 10 nM to 17 nM. The first is the more potent here.

Compared with O=C(NC(c1nnc(CS(=O)(=O)O)o1)c1nc2ccc(-c3ccccc3)cc2s1)C1CC1 (centres unmarked) [Example 18, (5-(cyclopropane-carboxamido-(6-phenylbenzo[d]-thiazol-2-yl)methyl)-1,3,4-oxadiazol-2-yl)methanesulfonic acid], CC(=O)NC(c1nnc(C2CNC2)o1)c1nc2ccc(-c3ccccc3)cc2s1 (centres unmarked) [Example 25, N-((5-(azetidin-3-yl)-1,3,4-oxadiazol-2-yl)(6-phenylbenzo[d]thiazol-2-yl)methyl)acetamide] is higher in IC50: < 10 nM for the first, 277 nM for the second.

Compared with O=C1NC(=O)C(Cc2nnc(C(NC(=O)C3CC3)c3nc4c(F)cc(-c5ccccc5)cc4s3)o2)S1 (centres unmarked) [Example 21], COc1nc(-c2nnc(C(NC(C)=O)c3nc4ccc(-c5ccccc5)cc4s3)o2)c(O)c(=O)[nH]1 (centres unmarked) [Example 24, N-((5-(5-hydroxy-2-methoxy-6-oxo-1,6-dihydropyrimidin-4-yl)-1,3,4-oxadiazol-2-yl)(6-phenylbenzo[d]thiazol-2-yl)methyl)acetamide] is higher in IC50: < 10 nM for the first, 25 nM for the second. The first is the more potent here.

CC(=O)NC(c1nnc(CC2(C)NC(=O)NC2=O)o1)c1nc2ccc(-c3ccc(C(=O)N4CCOCC4)cc3)cc2s1 (centres unmarked) [Example 23, N-((5-((4-methyl-2,5-dioxoimidazolidin-4-yl)methyl)-1,3,4-oxadiazol-2-yl)(6-(4-(morpholine-4-carbonyl)phenyl)benzo[d]thiazol-2-yl)methyl)acetamide] was tested, and the IC50 was 131 nM.
